Data taken from paper PMC12486458 (Journal of Enzyme Inhibition and Medicinal Chemistry, 2025).

Test system: U266 multiple myeloma cells
Assay: MTT assay
Type: cell-based
Conditions: Homo sapiens, U-266, 72 h, read-out: U266 IC50

Work on `CC[C@@H]1C(=O)N(C)c2cnc(Nc3ccc(C(=O)NC4CCN(C)CC4)cc3OC)nc2N1C1CCCC1` [BI 2536] yielded an IC50 of 280 ± 30 nM.
